Data taken from PubChem BioAssay (NCI).
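Interpolation was linear, between the two tested concentrations surrounding the appropriate level; five concentrations were tested over 48 hours in 96-well plates. GI50 = concentration required for 50% inhibition of growth. Definition used: TGI = concentration required for complete inhibition of growth.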

Tests used:
Assay in all cases: NCI tumour cell line growth inhibition, 48 h; in the data active means GI50 below about 0.43 µM; inactive means the rest
[1] = test system: LOX IMVI melanoma
[2] = test system: HCT-116 colon
[3] = test system: DU-145 prostate
[4] = test system: MDA-MB-231 breast
[5] = test system: MDA-MB-435
[6] = test system: IGROV1 ovarian
[7] = test system: OVCAR-8 ovarian
[8] = test system: COLO 205 colon
[9] = test system: K-562 leukemia
[10] = test system: PC-3 prostate
[11] = test system: A549 NSCLC
[12] = test system: CAKI-1 renal
[13] = test system: BT-549 breast
[14] = test system: SW-620 colon
[15] = test system: SN12C renal
[16] = test system: OVCAR-4 ovarian
[17] = test system: SK-MEL-2 melanoma
[18] = test system: SF-295 CNS
[19] = test system: MOLT-4 leukemia
[20] = test system: HL-60(TB) leukemia
[21] = test system: SNB-75 CNS
[22] = test system: A498 renal
[23] = test system: NCI-H226 lung
[24] = test system: UO-31 renal
[25] = test system: M14 melanoma
[26] = test system: HOP-62 NSCLC
[27] = test system: NCI-H522 lung
[28] = test system: SK-MEL-28 melanoma

Cn1cc(C2=C(n3ccc4ccccc43)C(=O)NC2=O)c2ccccc21
inactive: GI50 [2] > 25 µM | GI50 [3] > 25 µM | GI50 [4] > 25 µM | GI50 [5] > 25 µM | GI50 [6] > 25 µM | GI50 [7] > 25 µM | GI50 [8] > 25 µM | GI50 [9] > 25 µM | GI50 [10] > 25 µM | GI50 [11] > 25 µM | GI50 [12] > 25 µM | GI50 [13] > 25 µM | GI50 [14] > 25 µM | GI50 [15] > 25 µM | GI50 [16] > 25 µM | GI50 [17] > 25 µM | GI50 [18] > 25 µM | GI50 [19] > 25 µM | GI50 [20] > 25 µM | GI50 [21] > 9.34 µM | GI50 [22] > 25 µM | GI50 [23] > 25 µM | GI50 [24] > 21.6 µM | GI50 [25] > 25 µM | GI50 [26] > 25 µM | GI50 [27] > 25 µM | GI50 [28] > 25 µM
> 25 µM: TGI [1] | TGI [2] | TGI [3] | TGI [4] | TGI [5] | TGI [6] | TGI [7] | TGI [8] | TGI [9] | TGI [10] | TGI [11] | TGI [12] | TGI [13] | TGI [14] | TGI [15] | TGI [16] | TGI [17] | TGI [18] | TGI [19] | TGI [20] | TGI [21] | TGI [22] | TGI [23] | TGI [24] | TGI [25] | TGI [26] | TGI [27] | TGI [28]
